In publication PMC10283505, “CVM-1118 (foslinanib), a 2-phenyl-4-quinolone derivative, promotes apoptosis and inhibits vasculogenic mimicry via targeting TRAP1” (Pathology and Oncology Research, 2023):

Tests used:
[1] = test system: HT-29 colorectal adenocarcinoma cells; assay: Flow cytometry cell cycle analysis (PI); format: cell-based, human; details: 48 h
Description: This assay was conducted by ProQinase GmbH (Freiburg, Germany). HT-29 colorectal adenocarcinoma cells were seeded at 150,000 cells/well in 6-well cell culture plates in 5 mL complete medium and incubated at 37°C overnight. On the day of the assay, CVM-1118 at various concentrations or 0.1% DMSO were added to the cells. After 48 h incubation, cells were harvested including the supernatant, fixed in 80% methanol, and stored at −20°C overnight. The next day, cells were rehydrated in PBS for 30 min and treated with RNAse A (100 μg/mL) and propidium iodide (PI) (25 μg/mL). Cell cycle distribution was analyzed by flow cytometry (FACSCalibur, BD Biosciences), assessing approximately 10,000 events. Detection of DNA intercalated with PI was done by fluorescence detector FL3, in which amplification was set in such a manner that the first amplitude peak of the FL3 signal (FL3-A) in untreated cells (corresponding to the G1 cell population) was found at approximately 200 units. For analysis, events were plotted as histogram. The peak at ∼200 units was defined as cells in G1, events below the G1-peak were considered apoptotic cells (sub-G1), and events at ∼400 units as G2/M cells. All signals in between 200 and 400 units were defined as cells in S-Phase, and those beyond 400 units as endoreduplicated cells (endoR).

CAKI-1 = assay: NCI 60 cytotoxicity screening; format: cell-based; details: Homo sapiens; CAKI-1, Renal
MOLT-4 = assay: NCI 60 cytotoxicity screening; format: cell-based; details: Homo sapiens; MOLT-4, Leukemia
CEACAM5 = biological target: T1, CEACAM5 (Homo sapiens, UniProt P06731); assay: Surface plasmon resonance (Biacore); format: binding; details: CEACAM5, SPR
T1 sequence (P06731 35-702): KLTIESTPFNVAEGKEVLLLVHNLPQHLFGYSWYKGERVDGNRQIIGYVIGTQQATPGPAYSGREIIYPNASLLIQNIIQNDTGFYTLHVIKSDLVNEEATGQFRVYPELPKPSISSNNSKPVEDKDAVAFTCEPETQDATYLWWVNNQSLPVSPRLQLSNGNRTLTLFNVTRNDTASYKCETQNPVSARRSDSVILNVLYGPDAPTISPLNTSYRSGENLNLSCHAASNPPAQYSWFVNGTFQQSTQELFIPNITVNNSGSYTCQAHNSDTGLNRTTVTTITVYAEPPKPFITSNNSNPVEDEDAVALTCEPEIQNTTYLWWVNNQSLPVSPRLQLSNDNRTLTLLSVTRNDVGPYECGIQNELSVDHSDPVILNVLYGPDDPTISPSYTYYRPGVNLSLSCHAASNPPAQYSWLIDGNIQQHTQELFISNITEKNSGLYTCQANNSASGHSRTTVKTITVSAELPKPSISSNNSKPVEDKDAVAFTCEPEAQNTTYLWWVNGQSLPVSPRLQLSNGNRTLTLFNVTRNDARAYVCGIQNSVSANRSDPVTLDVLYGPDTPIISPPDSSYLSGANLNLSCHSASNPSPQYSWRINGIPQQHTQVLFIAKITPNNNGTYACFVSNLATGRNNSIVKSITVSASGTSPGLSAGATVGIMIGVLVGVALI

Integrin beta-2 (CD18) = Integrin beta-2 (CD18) (Homo sapiens, UniProt P05107); assay: Surface plasmon resonance (Biacore); format: binding; details: CD18, SPR
COLO 205 = assay: NCI 60 cytotoxicity screening; format: cell-based; details: Homo sapiens; COLO 205, Colon
Catenin β-1 = biological target: T2, Catenin β-1 (Homo sapiens, UniProt P35222); assay: Surface plasmon resonance (Biacore); format: binding; details: Catenin β-1, SPR
T2 sequence (P35222 1-781): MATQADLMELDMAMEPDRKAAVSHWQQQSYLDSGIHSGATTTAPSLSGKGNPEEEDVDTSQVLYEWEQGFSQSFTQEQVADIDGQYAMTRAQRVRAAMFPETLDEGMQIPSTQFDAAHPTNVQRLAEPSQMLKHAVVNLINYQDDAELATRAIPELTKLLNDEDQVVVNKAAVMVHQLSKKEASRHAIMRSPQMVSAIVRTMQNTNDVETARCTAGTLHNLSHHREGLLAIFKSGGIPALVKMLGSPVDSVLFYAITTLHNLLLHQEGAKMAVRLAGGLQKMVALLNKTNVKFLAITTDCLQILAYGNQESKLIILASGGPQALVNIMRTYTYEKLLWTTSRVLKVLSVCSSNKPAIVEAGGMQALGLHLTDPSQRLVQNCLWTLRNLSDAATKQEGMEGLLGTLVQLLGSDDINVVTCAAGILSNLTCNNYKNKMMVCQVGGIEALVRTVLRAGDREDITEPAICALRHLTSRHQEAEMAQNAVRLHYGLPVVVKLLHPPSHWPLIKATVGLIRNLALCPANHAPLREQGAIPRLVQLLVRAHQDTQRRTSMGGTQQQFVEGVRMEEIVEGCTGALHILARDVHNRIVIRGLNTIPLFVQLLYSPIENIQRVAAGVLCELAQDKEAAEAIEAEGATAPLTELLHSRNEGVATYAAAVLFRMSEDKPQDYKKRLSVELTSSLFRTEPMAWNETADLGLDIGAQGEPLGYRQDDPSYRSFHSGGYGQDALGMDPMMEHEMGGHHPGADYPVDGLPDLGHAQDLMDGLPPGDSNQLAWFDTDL

UACC-62 = assay: NCI 60 cytotoxicity screening; format: cell-based; details: Homo sapiens; UACC-62, Melanoma
HL-60(TB) = assay: NCI 60 cytotoxicity screening; format: cell-based; details: Homo sapiens, Leukemia
DU-145 = assay: NCI 60 cytotoxicity screening; format: cell-based; details: Homo sapiens; DU-145, Prostate
Nucleolin = Nucleolin (Homo sapiens, UniProt P19338); assay: Surface plasmon resonance (Biacore); format: binding; details: SPR
Chain of Nucleolin (P19338 whole entry): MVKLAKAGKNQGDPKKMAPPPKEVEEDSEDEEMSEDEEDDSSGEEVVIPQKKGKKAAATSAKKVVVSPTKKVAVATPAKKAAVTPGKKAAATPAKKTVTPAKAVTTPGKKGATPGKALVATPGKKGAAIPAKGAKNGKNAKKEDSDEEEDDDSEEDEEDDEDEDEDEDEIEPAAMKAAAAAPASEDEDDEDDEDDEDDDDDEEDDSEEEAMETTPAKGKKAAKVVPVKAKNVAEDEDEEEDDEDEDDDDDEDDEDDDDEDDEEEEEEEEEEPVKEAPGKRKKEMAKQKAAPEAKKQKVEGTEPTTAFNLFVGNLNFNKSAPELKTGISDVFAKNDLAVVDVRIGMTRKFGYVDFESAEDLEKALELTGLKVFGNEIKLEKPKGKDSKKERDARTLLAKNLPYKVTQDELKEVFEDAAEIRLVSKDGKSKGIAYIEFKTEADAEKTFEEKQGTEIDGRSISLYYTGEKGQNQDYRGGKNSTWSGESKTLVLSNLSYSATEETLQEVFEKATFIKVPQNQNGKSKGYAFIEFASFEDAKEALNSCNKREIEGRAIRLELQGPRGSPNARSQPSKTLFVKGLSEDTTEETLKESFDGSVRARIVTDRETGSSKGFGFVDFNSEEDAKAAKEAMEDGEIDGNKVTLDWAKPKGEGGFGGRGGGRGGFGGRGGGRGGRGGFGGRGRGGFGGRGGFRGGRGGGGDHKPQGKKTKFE

Chain of Integrin beta-2 (CD18) (P05107 23-769): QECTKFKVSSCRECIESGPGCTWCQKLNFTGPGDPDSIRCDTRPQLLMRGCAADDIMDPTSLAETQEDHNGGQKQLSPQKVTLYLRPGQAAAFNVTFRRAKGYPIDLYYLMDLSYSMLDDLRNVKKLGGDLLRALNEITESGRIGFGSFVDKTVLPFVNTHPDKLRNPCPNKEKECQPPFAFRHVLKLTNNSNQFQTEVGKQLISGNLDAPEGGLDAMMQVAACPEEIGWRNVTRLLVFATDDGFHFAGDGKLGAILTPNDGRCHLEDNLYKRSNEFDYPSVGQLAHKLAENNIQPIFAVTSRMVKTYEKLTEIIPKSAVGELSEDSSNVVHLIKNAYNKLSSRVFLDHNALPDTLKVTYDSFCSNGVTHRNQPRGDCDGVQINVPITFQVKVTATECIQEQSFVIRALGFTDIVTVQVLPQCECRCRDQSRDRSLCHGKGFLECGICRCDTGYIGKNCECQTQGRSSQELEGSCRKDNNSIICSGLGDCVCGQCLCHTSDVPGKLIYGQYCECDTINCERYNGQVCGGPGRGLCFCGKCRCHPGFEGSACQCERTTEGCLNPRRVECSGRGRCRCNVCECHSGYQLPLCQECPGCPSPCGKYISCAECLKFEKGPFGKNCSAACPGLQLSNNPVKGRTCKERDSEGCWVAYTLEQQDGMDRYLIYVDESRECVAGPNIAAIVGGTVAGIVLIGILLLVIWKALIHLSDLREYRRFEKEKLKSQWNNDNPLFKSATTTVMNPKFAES

COc1ccc2[nH]c(-c3cccc(F)c3)cc(=O)c2c1OP(=O)(O)O [CVM-1118]
Cell cycle profile, EndoR ([1]; HT-29, 10 nM): 1.28% | Cell cycle profile, G1 phase ([1]; HT-29, 10 nM): 49.34% | Cell cycle profile, G2/M phase ([1]; HT-29, 10 nM): 25.66% | Cell cycle profile, S phase ([1]; HT-29, 10 nM): 23.02% | Cell cycle profile, Sub-G1 ([1]; HT-29, 10 nM): 1.24% | Cell cycle profile, EndoR ([1]; HT-29, 30 nM): 1.23% | Cell cycle profile, G1 phase ([1]; HT-29, 30 nM): 50.63% | Cell cycle profile, G2/M phase ([1]; HT-29, 30 nM): 23.71% | Cell cycle profile, S phase ([1]; HT-29, 30 nM): 23.30% | Cell cycle profile, Sub-G1 ([1]; HT-29, 30 nM): 1.44% | Cell cycle profile, EndoR ([1]; HT-29, 100 nM): 2.84% | Cell cycle profile, G1 phase ([1]; HT-29, 100 nM): 16.27% | Cell cycle profile, G2/M phase ([1]; HT-29, 100 nM): 43.42% | Cell cycle profile, S phase ([1]; HT-29, 100 nM): 10.90% | Cell cycle profile, Sub-G1 ([1]; HT-29, 100 nM): 26.96% | Cell cycle profile, EndoR ([1]; HT-29, 300 nM): 2.45% | Cell cycle profile, G1 phase ([1]; HT-29, 300 nM): 1.58% | Cell cycle profile, G2/M phase ([1]; HT-29, 300 nM): 50.77% | Cell cycle profile, S phase ([1]; HT-29, 300 nM): 23.63% | Cell cycle profile, Sub-G1 ([1]; HT-29, 300 nM): 22.46%

COc1ccc2[nH]c(-c3cccc(F)c3)cc(=O)c2c1O [CVM-1125]
GI50 (CAKI-1): 46.7 nM | GI50 (MOLT-4): 47.6 nM | Association (ka) (CEACAM5): No interaction | Dissociation (kd) (CEACAM5): No interaction | KD (kd/ka) (CEACAM5): No interaction | Dissociation (kd) (Integrin beta-2 (CD18)): 1.08e-05 s⁻¹ | kon (Integrin beta-2 (CD18); read-out: Association (ka)): 14.4 M⁻¹ s⁻¹ | Kd (Integrin beta-2 (CD18); read-out: KD (kd/ka)): 748 nM | GI50 (COLO 205): 25.2 nM | Association (ka) (Catenin β-1): No interaction | Dissociation (kd) (Catenin β-1): No interaction | KD (kd/ka) (Catenin β-1): No interaction | GI50 (UACC-62): 31 nM | GI50 (HL-60(TB)): 22.2 nM | GI50 (DU-145): 21.1 nM | Dissociation (kd) (Nucleolin): 0.0122 s⁻¹ | kon (Nucleolin; read-out: Association (ka)): 13500 M⁻¹ s⁻¹ | Kd (Nucleolin; read-out: KD (kd/ka)): 906 nM
